{
  "source": "patent US5140047A",
  "about": "“Lipoxygenase inhibitors” (SmithKline Beecham Corporation, priority 1991, dated 1992)",
  "key": {"psoriasis": {"system": "psoriasis", "settings": "Allen et al. 1983; cited from earlier work"}, "lipoxygenase": {"system": "lipoxygenase", "settings": "cited from earlier work"}, "[1]": {"biological_target": "T1, 5-lipoxygenase (5-LO) isolated from extracts of RBL-1 cells (Rattus norvegicus, UniProt P12527)", "T1 construct": "isolated from extracts of RBL-1 cells; endogenous in cells; host or cells: RBL-1 cells (cell extract / supernatant)", "T1 sequence (P12527 1-673)": "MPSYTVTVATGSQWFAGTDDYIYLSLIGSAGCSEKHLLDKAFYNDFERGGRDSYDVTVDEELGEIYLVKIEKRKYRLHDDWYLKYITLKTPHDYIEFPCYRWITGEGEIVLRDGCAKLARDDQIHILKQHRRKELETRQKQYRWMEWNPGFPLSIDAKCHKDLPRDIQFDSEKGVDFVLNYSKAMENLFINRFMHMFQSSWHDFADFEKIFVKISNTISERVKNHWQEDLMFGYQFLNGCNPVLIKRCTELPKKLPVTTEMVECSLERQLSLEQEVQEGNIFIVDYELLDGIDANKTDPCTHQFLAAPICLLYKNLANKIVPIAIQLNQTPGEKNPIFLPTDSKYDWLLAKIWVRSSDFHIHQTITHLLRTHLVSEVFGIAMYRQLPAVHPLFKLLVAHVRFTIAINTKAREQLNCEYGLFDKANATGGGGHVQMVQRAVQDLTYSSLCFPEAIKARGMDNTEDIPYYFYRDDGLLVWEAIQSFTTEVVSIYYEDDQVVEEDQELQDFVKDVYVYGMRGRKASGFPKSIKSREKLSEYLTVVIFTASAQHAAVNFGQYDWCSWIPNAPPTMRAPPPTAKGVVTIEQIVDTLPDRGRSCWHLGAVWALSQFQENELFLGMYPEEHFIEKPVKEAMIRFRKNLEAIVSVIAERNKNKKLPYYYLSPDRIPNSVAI", "assay": "5-LO activity, RBL-1 supernatant, oxygen consumption", "type": "biochemical", "settings": "RBL-1 supernatant 5-LO enzyme; 10 uM arachidonic acid, 20° C.; read-out: 5-LO IC-50", "description": "The 5-lipoxygenase (5-LO) was isolated from extracts of RBL-1 cells. The assay for assessing inhibition of the 5-LO activity was a continuous assay which monitored the consumption of oxygen (O2). The cell extract (100 ug) was preincubated with the inhibitor or its vehicle in 25 mM BisTris buffer (pH 7.0) that contained 1 mM EDTA, 1 mM ATP, 150 mM NaCl and 5% ethylene glycol for 2 minutes at 20° C. (total volume 2.99 ml). Arachidonic acid (10 uM) and CaCl2 (2 mM) were added to start the reaction, and the decrease in O2 concentration followed with time using a Clark-type electrode and the Yellow Spring O2 monitor (type 53) (Yellow Springs, Ohio). The optimum velocity was calculated from the progress curves. All compounds were dissolved in ethanol with the final concentration of ethanol being 1% in the assay. Drug-induced effects on enzyme activities are described as the concentration of drug causing a 50% inhibition of oxygen consumption (IC50)."}, "[2]": {"system": "5-LO activity (LTB4) in mouse whole blood", "assay": "Ex vivo mouse blood eicosanoid assay (LTB4, A23187 stimulated)", "type": "in vivo, mouse (CD1)", "settings": "po, per os; for inhibition at 10 mg/kg: read-out: ex vivo, % inh., heading: ex vivo, % inh., 30 min pre-treatment, mouse whole blood, A23187 60 uM", "description": "In experiments when mice were used they were CD1 mice obtained from Charles River Breeding Laboratories, and within a single experiment the mice were age-matched. Their weight range was from 25 to 42 g. The test groups generally contained 3-6 animals.\nMice were pre-treated per os with vehicle or a test compound (dissolved in dimethylacetamide and diluted 1 to 10 with sesame oil) 30 minutes prior to removal of blood. The 5-lipoxygenase product LTB4, was extracted from whole blood following A23187 stimulation. Aliquots of pooled heparinized mouse blood (1 ml each aliquot) from male CD1 mice (Charles River) were placed into 4 ml polypropylene tubes. The tubes were preincubated for about five minutes at 37° C. A23187 (60 uM) was added to stimulate eicosanoid production. Several aliquots of blood were not stimulated and, thus, provided background levels for eicosanoid production. All tubes were incubated for about 30 minutes at 37° C. The blood samples were centrifuged at 400×g for about 15 minutes, and the plasma recovered for extraction. One volume of chilled acetonitrile was added to all at 5° C. The supernatants were recovered and diluted with 1% formic acid: 1% triethylamine to achieve a final concentration of 20% acetonitrile. These supernatants were then loaded onto the extraction cartridge that had been conditioned according to the Manufacturer's instructions (Solid Phase Extraction Columns, J. T. Baker, C18 3 ml size). The samples were washed with 3 ml of 1% formic acid: 1% triethylamine, air dried, and then washed with 3 ml of petroleum ether. After air drying again, the samples were eluted with methyl formate. The eluents were concentrated under vacuum. The concentrates were resuspended in 30% acetonitrile buffered with 50 mM ammonium acetate ([…]). The recovery of LTB4 was 60%. The 300 ul concentrates were assayed by radioreceptor assay for LTB4 by labortatory protocol.\nMean values for groups were calculated and percent inhibition was determined between the vehicle control mean and test group. […]"}, "[3]": {"system": "eicosanoid production in human whole blood", "assay": "Inhibition of eicosanoid production following calcium ionophore stimulation in human whole blood", "type": "cell-based", "settings": "calcium ionophore 60 μM", "description": "The eicosanoids, which include the 5-lipoxygenase product LTB4, transLTB4, 20-hydroxyLTB4, 5-HETE, and the 12-lipoxygenase product are extracted from the whole blood following A23187 calcium ionophore stimulation. The extracts are separated by reverse phase high pressure liquid chromatography and quantified by absorbance methods.\nVenous human blood is collected into polypropylene tubes containing 1% heparin. The blood is then aliquoted into 4.5 ml volumes and preincubated at 37° C. for 6 minutes in polypropylene tubes (15 ml size). Compound or carrier (10 μL dimethylsulfoxide) is added 6 minutes prior to stimulation. Calcium ionophore (0.5 ml) is added, and the blood incubated for 6 minutes. Prostaglandin B2 (1 nmole) is added, and the blood extracted as described below.\nThe samples are centrifuged at 1000×g for 15 minutes at 5° C. The plasma is collected, and one volume of acetonitrile is added to the plasma. This suspension is then centrifuged at 1000×g for 15 minutes at 5° C. The supernatant is collected and diluted with 1.5 volumes of chilled aqueous 1% formic acid. This mixture is loaded onto a preconditioned J. T. Baker C18 SPE cartridge (Phillipsburg, N.J.) at a flow rate of 1-2 ml/minute. (The cartridge is preconditioned according to manufacture's recommendations.) The absorbed sample is washed in the following order with three (3) ml each of (i) aqueous 1% formic acid: 1% triethylamine; and (ii) petroleum ether.\nThe eicosanoids are eluted in 3 ml of methyl formate. The solvent is removed under vacuum. The sample is resuspended in […] of 50% acetonitrile buffered with ammonium acetate. […]\nThe eicosanoids in the samples are verified by their retention times and their UV absorbance spectra. The peaks are quantified with reference to the internal standard and their absorbance response at their maximum absorbance wavelength."}, "[4]": {"system": "LTB4 and 5-HETE production", "settings": "Stenson et al. 1982; cited from earlier work"}, "rheumatoid arthritis": {"system": "rheumatoid arthritis", "settings": "preliminary observation, Neumann et al. 1983; cited from earlier work"}, "[5]": {"system": "human monocyte LTB4 production", "assay": "LTB4 production from human monocytes in vitro (A23187 stimulated, RIA)", "type": "cell-based", "description": "(§1) Human monocytes were prepared from leukosource packs supplied by the American Red Cross. The leukosource packs were fractionated by a two-step procedure described by F. Colatta et al. (J. Immunology 132: 936, 1984) that uses sedimentation on Ficoll followed by sedimentation on Percoll. The monocyte fraction that results from this technique was composed of 80-90% monocytes with the remainder being neutrophils and lymphocytes. In addition, significant number of platelets are present.\n(§2) The monocytes (10^6 cells) were placed into polypropylene tubes and used as a suspended culture. The assay buffer consisted of RPMI 1640 buffer, 2 mM glutamine, 2.5 mM HEPES and 2 mM CaCl2 (total volume 0.475 ml). Compounds (0.005 ml) were added in DMSO, and the cells were preincubated for 10 minutes at 37° C. with constant agitation. A23187 (2 uM) was used to stimulate the cells. After an additional 10 minutes, the buffer was collected by centrifugation (2500×g for 15 minutes), and stored at -70° C. until assayed. LTB4 production was measured by radioimmunassay which was performed according to the manufacturer's (Advanced Magnetics, Boston, Mass.) instructions. PGE2 was determined using an RIA kit supplied by New England Nuclear (Boston, Mass.)."}, "[6]": {"system": "human monocyte PGE2 production (cyclooxygenase activity)", "assay": "PGE2 production from human monocytes in vitro (A23187 stimulated, RIA)", "type": "cell-based", "settings": "for IC50: Homo sapiens, Monocyte", "description": "as §1, §2"}, "myocardial infarction": {"system": "myocardial infarction", "settings": "dogs, Mullane et al. 1984; cited from earlier work"}},
  "note": "Read-outs that look alike come from different tables or passages of the source.",
  "data": [
    {"smiles": "CC(C(=O)O)c1ccc2oc(-c3ccc(Cl)cc3)nc2c1", "note": "(stereo not shown) [benoxaprofen]", "values": [
      {"measurement": "effect on psoriasis", "setting": "psoriasis", "result": "promising effect"},
      {"measurement": "in vitro lipoxygenase inhibitory activity", "setting": "lipoxygenase", "result": "in vitro lipoxygenase inhibitory activity"}
    ]},
    {"smiles": "NC(=O)N(O)C1COc2c1ccc1ccccc21", "note": "(stereo not shown) [Example 2]", "values": [
      {"measurement": "IC50", "setting": "[1]", "result": 5.6, "unit": "µM"},
      {"measurement": "inhibition at 10 mg/kg", "setting": "[2]", "result": 92, "unit": "%"},
      {"measurement": "IC50", "setting": "[3]", "result": "> 10", "unit": "µM"}
    ]},
    {"smiles": "O=C(O)c1cc(/N=N/c2ccc(S(=O)(=O)Nc3ccccn3)cc2)ccc1O", "note": "[Sulfasalazine]", "values": [
      {"measurement": "inhibition of LTB4 and 5-HETE production in vitro", "setting": "[4]", "result": "inhibit LTB4 and 5-HETE production in vitro"},
      {"measurement": "efficacy in rheumatoid arthritic patients", "setting": "rheumatoid arthritis", "result": "efficacy, including remission"}
    ]},
    {"smiles": "NC(=O)N(O)C1CCCc2c1ccc1ccccc21", "note": "(stereo not shown) [Example 1, N-1-(1,2,3,4-Tetrahydrophenanthrenyl)-N-hydroxyurea]", "values": [
      {"measurement": "IC50", "setting": "[1]", "result": 4.2, "unit": "µM"},
      {"measurement": "IC50", "setting": "[5]; A23187 2 uM, Table 1, read-out: human monocyte-IC50, LTB4", "result": 1.6, "unit": "µM"},
      {"measurement": "IC50", "setting": "[5]; read-out: IC50, production of LTB4 in the human monocyte", "result": 1.6, "unit": "µM"},
      {"measurement": "IC50", "setting": "[6]; A23187 2 uM, Table 1, read-out: human monocyte-IC50, PGE2", "result": "> 30", "unit": "µM"},
      {"measurement": "IC50", "setting": "[6]; read-out: IC50, production of the prostaglandin PGE2 (human monocyte)", "result": "> 30", "unit": "µM"},
      {"measurement": "cyclooxygenase activity as indicated by production of PGE2", "setting": "[6]; result in words", "result": "did not inhibit cyclooxygenase activity"},
      {"measurement": "ED50", "setting": "[2]; 0.5 h, mouse whole blood ex vivo, A23187, linear regression, read-out: ED50 (inhibition of 5-LO activity ex vivo)", "result": 2.5, "unit": "mg/kg"},
      {"measurement": "inhibition at 10 mg/kg", "setting": "[2]", "result": 86, "unit": "%"},
      {"measurement": "IC50", "setting": "[3]", "result": "> 10", "unit": "µM"}
    ]},
    {"smiles": "NC1=NN(c2cccc(C(F)(F)F)c2)CC1", "note": "[BW755-C]", "values": [
      {"measurement": "area of infarction following coronary occlusion", "setting": "myocardial infarction", "result": "reduced"}
    ]},
    {"smiles": "NC(=O)N(O)C1COc2ccc3ccccc3c21", "note": "(stereo not shown) [Example 3]", "values": [
      {"measurement": "IC50", "setting": "[1]", "result": 8, "unit": "µM"},
      {"measurement": "IC50", "setting": "[3]", "result": "> 10", "unit": "µM"}
    ]}
  ]
}
